Target: T1, human tryptase beta-2 (hTPSB2) (Homo sapiens, UniProt P20231)
T1 construct: gene TPSB2
Experiment: biochemical

T1 sequence (P20231 31-275): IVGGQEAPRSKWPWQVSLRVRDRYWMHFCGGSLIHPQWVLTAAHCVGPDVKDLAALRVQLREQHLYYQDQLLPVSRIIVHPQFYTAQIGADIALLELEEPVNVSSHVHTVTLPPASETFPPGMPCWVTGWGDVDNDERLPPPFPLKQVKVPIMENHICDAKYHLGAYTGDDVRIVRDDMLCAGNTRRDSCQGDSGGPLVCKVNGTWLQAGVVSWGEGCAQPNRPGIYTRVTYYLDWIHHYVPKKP

| SMILES | Kd [nM] |
| --- | --- |
| C[Si](C)(O[Si](C)(C)c1coc2ccc(C(=O)N3CCC(c4cccc(CN)c4)CC3)cc12)c1coc2ccc(C(=O)N3CCC(c4cccc(CN)c4)CC3)cc12 [#2d, compound #2d] | 2.1 |
| C[Si](C)(O)c1coc2ccc(C(=O)N3CCC(c4cccc(CN)c4)CC3)cc12 [#2m, compound #2m] | 81 |
